Measured values from ChEMBL document CHEMBL1201862, “PubChem BioAssay data set” (2004).
Active and inactive are the calls of the source.

Tests used:
Melanocortin receptor 4 = Melanocortin receptor 4 (Homo sapiens, UniProt P32245); assay: inhibitors of MC4R cAMP signaling – cell-based, TR-FRET, biased antagonists, dose response (AID 602298); assay type: functional;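 also: antagonist potency against agonist-stimulated cAMP production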
[1] = cAMP pathway inhibition in counterscreen cell line – TR-FRET cAMP detection, counter-screen for MC4R biased antagonist project, dose response (AID 602305); assay type: functional, cell-based;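 also: U2OS cells stimulated with forskolin near its EC80 as the cAMP inducer; potency is for inhibition of forskolin-stimulated cAMP signaling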
CHO = CHO cell viability loss, potency – luminescence, cytotoxicity control for TLR9-MyD88 binding inhibitor project, dose response (AID 588339); assay type: functional, cell-based, hamster; conditions: Cricetulus griseus;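 also: CHO cells stably coexpressing TLR9 and MyD88 fusions from primary screen; compound exposure lasted 48 hours before viability readout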
Beta Lactamase = Beta Lactamase (Pseudomonas aeruginosa, UniProt Q932Y6); assay: BLA reporter interference, concentration series – BLA reporter cells, FRET fluorescence, artefact control for TLR9-MyD88 binding inhibitor project, dose response (AID 588341); assay type: cell-based;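 also: cell based assay in CHO-K1 cells stably expressing beta-lactamase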
[2] = target: 26S proteasome non-ATPase regulatory subunit 14 (Homo sapiens, UniProt O00487); assay: inhibition of proteasome subunit RPN11 – biochemical, fluorescence polarization, uHTS hits, confirmation (AID 602368); assay type: functional
[3] = target: 72 kDa type IV collagenase (Homo sapiens, UniProt P08253); assay: Dose Response validation of uHTS RPN11 inhibitor hits using a MMP-2 Fluorescence assay.; assay type: functional
Prothrombin = Prothrombin (Bos taurus, UniProt P00735); assay: thrombin protease inhibitors – biochemical, fluorescence polarization, uHTS hits, dose response (AID 602369); assay type: functional
[4] = target: T1, High affinity choline transporter 1 (Homo sapiens, UniProt Q9GZV3); assay: human choline transporter blockers, potency – cell-based, 5-point CRC, membrane potential dye, dose response (AID 504840); assay type: functional
T1 sequence (Q9GZV3 whole entry): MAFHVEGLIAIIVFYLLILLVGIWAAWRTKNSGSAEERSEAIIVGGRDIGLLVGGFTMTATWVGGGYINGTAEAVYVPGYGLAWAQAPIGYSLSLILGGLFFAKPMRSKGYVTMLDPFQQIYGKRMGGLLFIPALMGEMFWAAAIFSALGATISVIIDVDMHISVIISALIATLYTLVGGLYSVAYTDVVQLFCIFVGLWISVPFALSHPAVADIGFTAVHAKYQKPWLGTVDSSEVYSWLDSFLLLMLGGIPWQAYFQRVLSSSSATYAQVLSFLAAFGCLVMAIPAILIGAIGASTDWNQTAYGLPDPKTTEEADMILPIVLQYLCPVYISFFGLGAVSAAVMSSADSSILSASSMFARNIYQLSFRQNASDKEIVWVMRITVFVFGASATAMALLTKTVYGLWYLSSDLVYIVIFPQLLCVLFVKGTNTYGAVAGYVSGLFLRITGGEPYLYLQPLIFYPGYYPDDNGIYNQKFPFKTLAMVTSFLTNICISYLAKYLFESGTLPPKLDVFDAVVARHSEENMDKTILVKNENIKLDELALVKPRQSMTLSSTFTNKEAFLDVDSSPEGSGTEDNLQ

[5] = target: T1, High affinity choline transporter 1; assay: human choline transporter blockers, potency – cell-based, 10-point CRC, membrane potential dye, dose response (AID 588401); assay type: functional;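 also: membrane potential dye fluorescence of choline-evoked depolarization via CHT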

Chain of Melanocortin receptor 4 (P32245 whole entry): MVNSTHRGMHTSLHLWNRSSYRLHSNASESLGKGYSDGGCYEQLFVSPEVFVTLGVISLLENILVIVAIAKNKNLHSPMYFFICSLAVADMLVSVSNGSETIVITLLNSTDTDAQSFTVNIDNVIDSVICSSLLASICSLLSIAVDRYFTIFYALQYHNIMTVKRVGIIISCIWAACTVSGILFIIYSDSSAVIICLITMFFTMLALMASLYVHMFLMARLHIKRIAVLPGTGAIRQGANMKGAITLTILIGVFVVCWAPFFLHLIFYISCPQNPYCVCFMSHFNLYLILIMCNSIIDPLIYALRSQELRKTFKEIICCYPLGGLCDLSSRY
Chain of 72 kDa type IV collagenase (P08253 whole entry): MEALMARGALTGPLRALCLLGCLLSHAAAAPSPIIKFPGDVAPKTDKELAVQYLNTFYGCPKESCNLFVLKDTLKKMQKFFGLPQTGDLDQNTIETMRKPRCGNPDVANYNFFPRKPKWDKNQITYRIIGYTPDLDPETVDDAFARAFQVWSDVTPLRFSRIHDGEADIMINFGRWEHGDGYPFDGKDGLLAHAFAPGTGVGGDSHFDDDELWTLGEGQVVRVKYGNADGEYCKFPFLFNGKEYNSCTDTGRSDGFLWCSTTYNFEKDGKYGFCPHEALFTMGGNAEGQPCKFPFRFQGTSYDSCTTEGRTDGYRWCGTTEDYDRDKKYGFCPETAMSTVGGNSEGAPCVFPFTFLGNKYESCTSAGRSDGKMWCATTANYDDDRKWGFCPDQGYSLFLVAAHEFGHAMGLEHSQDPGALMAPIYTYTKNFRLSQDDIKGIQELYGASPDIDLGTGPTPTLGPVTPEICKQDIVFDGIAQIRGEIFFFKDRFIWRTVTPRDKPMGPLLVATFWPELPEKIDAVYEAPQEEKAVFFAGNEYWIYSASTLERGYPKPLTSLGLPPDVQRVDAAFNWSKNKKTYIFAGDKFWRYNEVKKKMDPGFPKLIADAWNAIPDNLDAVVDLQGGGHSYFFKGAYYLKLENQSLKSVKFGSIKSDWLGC
Chain of 26S proteasome non-ATPase regulatory subunit 14 (O00487 whole entry): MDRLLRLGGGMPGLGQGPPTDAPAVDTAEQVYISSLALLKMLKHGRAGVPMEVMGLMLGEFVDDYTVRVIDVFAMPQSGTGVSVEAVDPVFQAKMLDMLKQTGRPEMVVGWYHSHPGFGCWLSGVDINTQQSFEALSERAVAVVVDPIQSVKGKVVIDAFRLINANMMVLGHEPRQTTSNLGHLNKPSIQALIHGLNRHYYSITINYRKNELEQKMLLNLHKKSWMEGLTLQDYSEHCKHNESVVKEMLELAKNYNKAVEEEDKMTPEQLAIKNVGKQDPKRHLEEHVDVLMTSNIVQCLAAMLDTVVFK
Chain of Beta Lactamase (Q932Y6 whole entry): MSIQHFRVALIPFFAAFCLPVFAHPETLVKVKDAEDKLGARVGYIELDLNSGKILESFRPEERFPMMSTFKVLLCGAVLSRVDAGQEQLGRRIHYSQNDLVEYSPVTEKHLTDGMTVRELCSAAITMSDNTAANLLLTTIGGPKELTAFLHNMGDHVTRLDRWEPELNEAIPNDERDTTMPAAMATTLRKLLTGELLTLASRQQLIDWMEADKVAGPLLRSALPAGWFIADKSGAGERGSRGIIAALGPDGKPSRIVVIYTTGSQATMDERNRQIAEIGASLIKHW

Row | IC50 [4] | IC50 [5] | Compound | IC50 (Melanocortin receptor 4) | IC50 [1] | further results
1 |  |  | COC(=O)C(CC(C)C)NC(=O)/C=C/c1ccc(Cl)cc1 (stereo not drawn) | > 64.6 µM (inactive) | > 64.6 µM (inactive) | 
2 |  |  | O=[N+]([O-])c1ccc(N/N=C/c2c[nH]c3ccccc23)cc1 |  |  | IC50 (CHO): 47.2 µM (inactive); IC50 (Beta Lactamase): 10.2 µM (inactive); IC50 [2]: 1.77 µM (active); IC50 [3]: > 100 µM (inactive); IC50 (Prothrombin): 2.05 µM (active)
3 |  |  | CC1(C(=O)N/N=C/c2c(F)c(F)c(F)c(F)c2F)CC1(Cl)Cl (stereo not drawn) | > 7.17 µM (active) | > 64.6 µM (inactive) | 
4 | 2.09 µM (active) | 1.5 µM (active) | CCN1CCN(c2ncnc3scc(-c4ccc(C)cc4)c23)CC1 |  |  | 
5 | 10 µM (active) | 6.31 µM (active) | N#C/C(=C(/O)c1ccccc1F)c1nc2cc(C(F)(F)F)ccc2s1 |  |  | 
